Measurements taken from patent US10130571B2, “Dentifrice Comprising Zinc-Amino Acid Complex and Phosphates” (Colgate-Palmolive Company, priority 2014, dated 2018).

System: biofilms
Test: Biofilm formation on HAP discs pre-treated with a simple solution of lysine
Type: cell-based
Conditions: after 48 h, visual
Description: We pre-treated HAP discs with a simple solution of lysine to see how an overabundance of free lysine would affect biofilm formation.

## NCCCC[C@H](N)C(=O)O [lysine]
  appearance of biofilms after lysine pre-treatment: visually were overgrown
